Source: patent US11800867B2, “Methods of repelling biting arthropods, reducing pathogen spread and treating arthropod infestation” (priority 2016, dated 2023)
“And” between values parts separate entries of the source, which are not always exact repeats. Equal values may be shown once. “Also recorded” adds a separate entry of the source.

Legend:
[1] = tested on: cat fleas (Ctenocephalides felis); experiment: Filter paper choice test of repelling action (Example 6); format: in vivo; details: for Raw data: number of fleas on Treated half of treated arena, per replicate / Raw data: number of fleas on Untreated half of treated arena, per replicate: 0.5% nootkatone in ethanol, Replicates 1-5
Protocol: (§1) An in vitro laboratory trial was required to assess the repelling action of nootkatone applied to filter paper against cat fleas (Ctenocephalides felis), deer ticks (Ixodes scapularis), bed bugs (Cimex lectularius), and termites (Reticulitermes flavipes) in a choice test design.
(§2) The sponsor provided a sample of nootkatone (98%), which was diluted in ethanol to a 0.5% concentration. The treatment was applied to filter paper at a rate of 1 mL for a 9 cm filter paper disc, and a rate of 1.9 mL for a 15 cm filter paper disc. A negative control group, consisting of untreated filter paper, was also assessed for comparison purposes.
Cat fleas: Treated and untreated filter papers were cut in half and fitted into the bottom of a 15 cm clear plastic cylinder. Treated replicates received one half treated and one half untreated filter paper; negative control replicates received only untreated filter paper.
Cat fleas: Cat fleas were introduced to the untreated side of each arena, and their distribution (on or under each paper) was recorded at +1, +4, and +24 hours post-introduction.
The number of insects in each location was converted to a percentage, for which the average and standard error were calculated across all five replicates.
Percent repellency was calculated with the following formula: % repellency=(1−((t/T)/(c/C)))*100 • Where t=number of insects on treated side of treated arena • T=total number of insects in treated arena • c=average number of insects on right side of untreated arenas • C=average total number of insects in untreated arenas

Ae. aegypti mosquitoes = experiment: Continuous exposure to treated filter paper, knockdown and mortality (Example 3); format: in vivo, Aedes aegypti; details: 1% nootkatone in ethanol on filter paper
Protocol: In the following example, the effectiveness of a 1% nootkatone composition in killing Ae. aegypti mosquitoes was determined.
A composition of 1% nootkatone formulated in ethanol was added to filter paper, which was then introduced into a Fluon®-coated container. Ten Ae. aegypti mosquitoes were added to the container and observed at 30 min, 1, 4, and 24 hr. Five replicates were performed. […] An untreated population was observed as a negative control.

Aedes aegypti mosquitoes = experiment: Choice design repellency test, treated collagen membrane-covered wells filled with warm blood (Example 1); format: in vivo; details: 1% nootkatone compositions (ethanol and acetone based); probing recorded during 20 min
Protocol: In the following example, the effectiveness of 1% nootkatone compositions in repelling mosquitoes was determined in comparison with DEET in a choice design test.
Compositions of 1% nootkatone were formulated in either ethanol or acetone and coated onto collagen membrane-covered wells filled with warm blood.
Two hundred and fifty female mosquitoes aged 4-8 days were sucrose deprived for 18 hr and then introduced to the collagen membrane-covered wells. Mosquito probing of the treated collagen membranes was recorded every 2 min during a 20 min period.
Five replicates were performed. A 20% DEET composition was used as a positive control and an ethanol only solution served as a negative control.

[2] = tested on: deer ticks (Ixodes scapularis); experiment: Filter paper choice test of repelling action (Example 6); format: in vivo
Protocol: as §1, §2
Deer ticks: Treated and untreated filter papers were cut in half and fitted into the bottom of a 9 cm petri dish. Treated replicates received one half treated and one half untreated filter paper; negative control replicates received untreated filter paper only. The petri dish arenas were then placed on their sides, with the control halves positioned at the lower half and the treated half at the upper half.
Deer ticks: Ticks were introduced, one at a time, to the bottom half of the control (untreated) arena, and monitored to see how long it took them to get to the upper “treated” side of the arena. Ticks were allowed up to three minutes to cross into the upper area of each arena. […] Once a tick had crossed into the upper side of the control arena, it was gently picked up with forceps and placed in the bottom half of the treated arena, and the procedure repeated. Ticks were considered “not repelled” if they crossed onto the treated side of the treated arena within three minutes.
The number of repelled ticks for each replicate was added together, and the average and standard error were calculated across all five replicates. The numbers were divided by the total number of ticks per replicate to obtain the percent repellency.

[3] = tested on: fire ants (Solenopsis invicta); experiment: Treated filter paper knockdown (KD) and mortality trial (Example 4); format: in vivo; details: Nootkatone 1% in ethanol on filter paper
Protocol: A laboratory trial was conducted to assess the efficacy of nootkatone applied to filter paper against aphids (Schizaphis gramium), dust mites (Dermatophagoides sp.), termites (Reticulitermes flavipes), deer ticks (Ixodes scapularis), biting midges (Culicoides sp.), fire ants (Solenopsis invicta), and mosquitoes (Aedes aegypti and Culex), in terms of knockdown (KD) and mortality. One concentration (1% in ethanol) of nootkatone was assessed for most species, but three concentrations (0.25%, 0.5%, and 1% in ethanol) were assessed for mosquitoes. A negative control group, consisting of filter paper treated with ethanol, was also assessed for comparison purposes for each species.
Test systems were introduced to treated filter paper, allowed to dry, and then introduced into treatment chamber, where treated arthropods were monitored at intervals up to 72 hours. If 100% mortality was obtained prior to 72 hours, the individual study was halted.
Fire ants—5 replicates of 10 insects were tested per treatment. A Petri dish lid 3.54 inches (9 cm) in diameter was inverted and serve as the substrate for a 2.75 inch (7 cm) treated filter paper circle. The small Petri dish bottom was inverted over the paper and had its sides treated with Fluon® to prevent climbing and force exposure with the filter paper. The entire Petri dish was enclosed with two rubber bands.
Readings were discontinued if treated mortality reaches […], or control mortality exceeds 20%.

[4] = 0.5% nootkatone in ethanol on filter paper
[5] = 0.5% nootkatone in ethanol, 10 ticks per replicate, three minutes, Replicates 1-5

C=C(C)[C@@H]1CCC2=CC(=O)C[C@@H](C)[C@]2(C)C1 [Nootkatone, nootkatone]
Repellency (conclusion in words) [1, 4]: some potential repellency | Raw data: number of fleas on Treated half of treated arena, per replicate ([1]; 1 Hour post introduction): 3 (2×) and 8 and 6 and 4 | Raw data: number of fleas on Untreated half of treated arena, per replicate ([1]; 1 Hour post introduction): 2 and 4 (2×) and 7 and 3 | Raw data: number of fleas on Treated half of treated arena, per replicate ([1]; 4 Hours post introduction): 2 and 1 and 3 (2×) and 4 | Raw data: number of fleas on Untreated half of treated arena, per replicate ([1]; 4 Hours post introduction): 9 and 7 and 6 (2×) and 4 | Raw data: number of fleas on Treated half of treated arena, per replicate ([1]; 24 Hours post introduction): 0 and 2 and 4 and 1 (2×) | Raw data: number of fleas on Untreated half of treated arena, per replicate ([1]; 24 Hours post introduction): 8 (2×) and 6 (2×) and 9 | Calculated percent repellency (average ± SE) ([1]; nootkatone (98%) 0.5% in ethanol on filter paper, half treated, half untreated arena): 61.9 ± 15.0% | Knockdown rate after 1 hr relative to 30 min (Ae. aegypti mosquitoes; after 1 hr): more than doubled | Knockdown rate (Ae. aegypti mosquitoes; after 4 hr): greater than 90% | Exposure time after which mosquitoes begin to be affected (Ae. aegypti mosquitoes; continuous exposure): 30 min | Exposure time at which knockdown was complete (FIG. 5) (Ae. aegypti mosquitoes; continuous exposure): < 24 h | Average percent of mosquitoes affected (FIG. 3) (Ae. aegypti mosquitoes; continuous exposure 24 hr): All mosquitoes were affected | Average repellency compared with 20% DEET (FIG. 2) (Aedes aegypti mosquitoes): repellency similar to that of 20% DEET; also recorded: comparable repellency | Repellency (conclusion in words) [2, 4]: highly repellent | Raw data: number of ticks Not repelled, per replicate [2, 5]: 0 (3×) and 1 (2×) | Raw data: number of ticks Repelled, per replicate [2, 5]: 9 (2×) and 10 (3×) | Calculated percent repellency (average ± SE) ([2]; nootkatone (98%) 0.5% in ethanol on filter paper, treated upper half, up to three minutes to cross): 96.0 ± 2.4% | Time required for greater than 90% killing [3]: 24 h | Means Affected ([3]; 30 minutes post introduction): 0.0% | Means Dead ([3]; 30 minutes post introduction): 0.0% | Means KD ([3]; 30 minutes post introduction): 0.0% | Means Affected ([3]; 1 hour post introduction): 0.0% | Means Dead ([3]; 1 hour post introduction): 0.0% | Means KD ([3]; 1 hour post introduction): 0.0% | Means Affected ([3]; 4 hours post introduction): 22.0% | Means Dead ([3]; 4 hours post introduction): 0.0% | Means KD ([3]; 4 hours post introduction): 22.0% | Means Affected ([3]; 24 hours post introduction): 100.0% | Means Dead ([3]; 24 hours post introduction): 100% | Means KD ([3]; 24 hours post introduction): 0.0% | Means Dead ([3]; 24 hours post introduction, listed as nootkatone): 100%
